Experimental findings from the NIST ThermoML archive (doi:10.1021/je100603q) are described below.

± gives the expanded uncertainty stated by the source.

Data set [1] in a line: molar enthalpy of vaporization or sublimation. The settings on record: 298.15 K; Crystal; Microcalorimetry.
Data set [2] can be described thus: molar enthalpy of transition or fusion. The settings on record: 298.15 K; Crystal; Microcalorimetry.

Consider `O=C1CCSCC1` [tetrahydro-4H-thiopyran-4-one], for which, in data set [1], the molar enthalpy turned out to be 73.4 ± 2.8 kJ/mol.

For `O=c1c2ccccc2sc2ccccc12` [thioxanthone], in data set [2], the “molar enthalpy of transition or fusion” value stood at 106 ± 2.4 kJ/mol.
